From PubChem BioAssay (NCI)
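Where inhibition never reached the appropriate level, the endpoint shown equals the highest concentration tested. Otherwise, values were interpolated linearly from a five-concentration, 48-hour dose response in 96-well plates. GI50 = concentration required for 50% inhibition of growth. The concentration for full growth arrest is given as TGI.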

Experiments:
Assay in all cases: NCI tumour cell line growth inhibition, 48 h
SK-MEL-5 melanoma = test system: SK-MEL-5 melanoma
MCF7 breast = test system: MCF7 breast
SNB-75 CNS = test system: SNB-75 CNS
UO-31 renal = test system: UO-31 renal
A549 NSCLC = test system: A549 NSCLC
KM12 colon = test system: KM12 colon
NCI/ADR-RES ovarian = test system: NCI/ADR-RES ovarian
MDA-MB-435 = test system: MDA-MB-435
HOP-92 NSCLC = test system: HOP-92 NSCLC
SF-268 CNS = test system: SF-268 CNS
SR leukemia = test system: SR leukemia
HCT-15 colon = test system: HCT-15 colon
UACC-257 melanoma = test system: UACC-257 melanoma
NCI-H460 lung = test system: NCI-H460 lung
HT29 colon = test system: HT29 colon
CAKI-1 renal = test system: CAKI-1 renal
HCC-2998 colon = test system: HCC-2998 colon
K-562 leukemia = test system: K-562 leukemia
COLO 205 colon = test system: COLO 205 colon
SK-OV-3 ovarian = test system: SK-OV-3 ovarian
HOP-62 NSCLC = test system: HOP-62 NSCLC
SF-295 CNS = test system: SF-295 CNS
OVCAR-8 ovarian = test system: OVCAR-8 ovarian
PC-3 prostate = test system: PC-3 prostate
786-0 renal = test system: 786-0 renal
DU-145 prostate = test system: DU-145 prostate
OVCAR-5 ovarian = test system: OVCAR-5 ovarian
MDA-MB-231 breast = test system: MDA-MB-231 breast
U251 CNS = test system: U251 CNS
SN12C renal = test system: SN12C renal
SNB-19 CNS = test system: SNB-19 CNS
MOLT-4 leukemia = test system: MOLT-4 leukemia
NCI-H23 lung = test system: NCI-H23 lung
LOX IMVI melanoma = test system: LOX IMVI melanoma
ACHN renal = test system: ACHN renal
HS 578T breast = test system: HS 578T breast
M14 melanoma = test system: M14 melanoma
NCI-H522 lung = test system: NCI-H522 lung
MALME-3M melanoma = test system: MALME-3M melanoma
CCRF-CEM leukemia = test system: CCRF-CEM leukemia
SK-MEL-2 melanoma = test system: SK-MEL-2 melanoma
OVCAR-4 ovarian = test system: OVCAR-4 ovarian
HCT-116 colon = test system: HCT-116 colon
UACC-62 melanoma = test system: UACC-62 melanoma
RXF 393 renal = test system: RXF 393 renal
IGROV1 ovarian = test system: IGROV1 ovarian
NCI-H226 lung = test system: NCI-H226 lung
OVCAR-3 ovarian = test system: OVCAR-3 ovarian
T-47D breast = test system: T-47D breast
RPMI-8226 leukemia = test system: RPMI-8226 leukemia
HL-60(TB) leukemia = test system: HL-60(TB) leukemia
EKVX NSCLC = test system: EKVX NSCLC
TK-10 renal = test system: TK-10 renal
SW-620 colon = test system: SW-620 colon
SK-MEL-28 melanoma = test system: SK-MEL-28 melanoma
SF-539 CNS = test system: SF-539 CNS
A498 renal = test system: A498 renal

O=S(=O)(O)ONC1=NCCN1
GI50 (SK-MEL-5 melanoma): > 100 µM
TGI (SK-MEL-5 melanoma): > 100 µM
GI50 (MCF7 breast): 16.1 µM
TGI (MCF7 breast): > 100 µM
GI50 (SNB-75 CNS): > 100 µM
TGI (SNB-75 CNS): > 100 µM
GI50 (UO-31 renal): 29.1 µM
TGI (UO-31 renal): > 100 µM
GI50 (A549 NSCLC): > 100 µM
TGI (A549 NSCLC): > 100 µM
GI50 (KM12 colon): > 100 µM
TGI (KM12 colon): > 100 µM
GI50 (NCI/ADR-RES ovarian): > 100 µM
TGI (NCI/ADR-RES ovarian): > 100 µM
GI50 (MDA-MB-435): > 100 µM
TGI (MDA-MB-435): > 100 µM
GI50 (HOP-92 NSCLC): > 100 µM
TGI (HOP-92 NSCLC): > 100 µM
GI50 (SF-268 CNS): > 100 µM
TGI (SF-268 CNS): > 100 µM
GI50 (SR leukemia): > 100 µM
TGI (SR leukemia): > 100 µM
GI50 (HCT-15 colon): > 100 µM
TGI (HCT-15 colon): > 100 µM
GI50 (UACC-257 melanoma): > 100 µM
TGI (UACC-257 melanoma): > 100 µM
GI50 (NCI-H460 lung): > 100 µM
TGI (NCI-H460 lung): > 100 µM
GI50 (HT29 colon): 58.1 µM
TGI (HT29 colon): > 100 µM
GI50 (CAKI-1 renal): > 100 µM
TGI (CAKI-1 renal): > 100 µM
GI50 (HCC-2998 colon): > 100 µM
TGI (HCC-2998 colon): > 100 µM
GI50 (K-562 leukemia): > 100 µM
TGI (K-562 leukemia): > 100 µM
GI50 (COLO 205 colon): > 100 µM
TGI (COLO 205 colon): > 100 µM
GI50 (SK-OV-3 ovarian): > 100 µM
TGI (SK-OV-3 ovarian): > 100 µM
GI50 (HOP-62 NSCLC): > 100 µM
TGI (HOP-62 NSCLC): > 100 µM
GI50 (SF-295 CNS): > 100 µM
TGI (SF-295 CNS): > 100 µM
GI50 (OVCAR-8 ovarian): > 100 µM
TGI (OVCAR-8 ovarian): > 100 µM
GI50 (PC-3 prostate): > 100 µM
TGI (PC-3 prostate): > 100 µM
GI50 (786-0 renal): 90.6 µM
TGI (786-0 renal): > 100 µM
GI50 (DU-145 prostate): > 100 µM
TGI (DU-145 prostate): > 100 µM
GI50 (OVCAR-5 ovarian): > 100 µM
TGI (OVCAR-5 ovarian): > 100 µM
GI50 (MDA-MB-231 breast): > 100 µM
TGI (MDA-MB-231 breast): > 100 µM
GI50 (U251 CNS): > 100 µM
TGI (U251 CNS): > 100 µM
GI50 (SN12C renal): > 100 µM
TGI (SN12C renal): > 100 µM
GI50 (SNB-19 CNS): > 100 µM
TGI (SNB-19 CNS): > 100 µM
GI50 (MOLT-4 leukemia): 49.7 µM
TGI (MOLT-4 leukemia): > 100 µM
GI50 (NCI-H23 lung): 94.2 µM
TGI (NCI-H23 lung): > 100 µM
GI50 (LOX IMVI melanoma): 76.6 µM
TGI (LOX IMVI melanoma): > 100 µM
GI50 (ACHN renal): > 100 µM
TGI (ACHN renal): > 100 µM
GI50 (HS 578T breast): 26.9 µM
TGI (HS 578T breast): > 100 µM
GI50 (M14 melanoma): > 100 µM
TGI (M14 melanoma): > 100 µM
GI50 (NCI-H522 lung): > 100 µM
TGI (NCI-H522 lung): > 100 µM
GI50 (MALME-3M melanoma): > 100 µM
TGI (MALME-3M melanoma): > 100 µM
GI50 (CCRF-CEM leukemia): 43.4 µM
TGI (CCRF-CEM leukemia): > 100 µM
GI50 (SK-MEL-2 melanoma): > 100 µM
TGI (SK-MEL-2 melanoma): > 100 µM
GI50 (OVCAR-4 ovarian): > 100 µM
TGI (OVCAR-4 ovarian): > 100 µM
GI50 (HCT-116 colon): 65.1 µM
TGI (HCT-116 colon): > 100 µM
GI50 (UACC-62 melanoma): > 100 µM
TGI (UACC-62 melanoma): > 100 µM
GI50 (RXF 393 renal): 66.7 µM
TGI (RXF 393 renal): > 100 µM
GI50 (IGROV1 ovarian): > 100 µM
TGI (IGROV1 ovarian): > 100 µM
GI50 (NCI-H226 lung): > 100 µM
TGI (NCI-H226 lung): > 100 µM
GI50 (OVCAR-3 ovarian): > 100 µM
TGI (OVCAR-3 ovarian): > 100 µM
GI50 (T-47D breast): 38.8 µM
TGI (T-47D breast): > 100 µM
GI50 (RPMI-8226 leukemia): 46.1 µM
TGI (RPMI-8226 leukemia): > 100 µM
GI50 (HL-60(TB) leukemia): > 100 µM
TGI (HL-60(TB) leukemia): > 100 µM
GI50 (EKVX NSCLC): > 100 µM
TGI (EKVX NSCLC): > 100 µM
GI50 (TK-10 renal): > 100 µM
TGI (TK-10 renal): > 100 µM
GI50 (SW-620 colon): 72.5 µM
TGI (SW-620 colon): > 100 µM
GI50 (SK-MEL-28 melanoma): > 100 µM
TGI (SK-MEL-28 melanoma): > 100 µM
GI50 (SF-539 CNS): > 100 µM
TGI (SF-539 CNS): > 100 µM

N=C(N)c1ccc(-c2ccc(-c3ccc(F)cc3)s2)s1
GI50 (SK-MEL-5 melanoma): 1.81 µM
TGI (SK-MEL-5 melanoma): 3.2 µM
GI50 (MDA-MB-435): 1.59 µM
TGI (MDA-MB-435): 2.93 µM
GI50 (UACC-257 melanoma): 2.19 µM
TGI (UACC-257 melanoma): 4.15 µM
GI50 (CAKI-1 renal): 1.68 µM
TGI (CAKI-1 renal): 3.08 µM
GI50 (A498 renal): 1.95 µM
TGI (A498 renal): 4.65 µM
GI50 (SK-OV-3 ovarian): 1.8 µM
TGI (SK-OV-3 ovarian): 3.57 µM
GI50 (DU-145 prostate): 1.72 µM
TGI (DU-145 prostate): 3.19 µM
GI50 (HS 578T breast): 2.19 µM
TGI (HS 578T breast): 4.85 µM
GI50 (M14 melanoma): 1.89 µM
TGI (M14 melanoma): 3.4 µM
GI50 (RXF 393 renal): 1.75 µM
TGI (RXF 393 renal): 3.34 µM
GI50 (NCI-H226 lung): 14.2 µM
TGI (NCI-H226 lung): 54.2 µM
GI50 (TK-10 renal): 1.72 µM
TGI (TK-10 renal): 3.14 µM
